Like-named read-outs stand apart in the source and are kept apart here.
Assays:
[1] = test system: HBeAg; test: HBeAg, multiplex assay, HBV-infected PHH; format: cell-based; settings: Hepatitis B virus
Procedure: Fresh primary human hepatocytes (PXB-PHH) harvested from humanized mice (uPA/SCID mice)—herein called PHH—were obtained from PhoenixBio Co., Ltd (Japan). Cells were seeded on a collagen I-coated plate at the following cell density: 35,000 cells/well (384-well), 70,000 cells/well (96-well), or, 400,000 cells/well (24-well) in modified hepatocyte clonal growth medium (dHCGM). dHCGM is a DMEM medium containing 100 U/ml Penicillin, 100 μg/ml Streptomycin, 20 mM Hopes, 44 mM NaHCO3, 15 μg/ml L-proline, 0.25 μg/ml insulin, 50 nM Dexamethazone, 5 ng/ml EGF, 0.1 mM Asc-2P, 2% DMSO and 10% FBS (Ishida et al., 2015). Cells were cultured at 37° C. incubator in a humidified atmosphere with 5% CO2. Culture medium was replaced 24 h post-plating and every 2 days until harvest.
Following 4 day of maturation with 1 μM MB-1, HLC were incubated with HBV (purified from CHB individuals) at multiplicity of infection (MOI) 10-40 without PEG for 24 hr; virus inoculum was removed the following day. […] Compound treatment in HLC and PHH was started at day 3 post infection. Compound (in powder) was dissolved in DMSO; the final concentration of DMSO added to cells is 1%. Fresh compound was replenished every 2 day until cells were harvested at day 10 (PHH), or day 14 (HLC). Compound effect on HBV and cellular toxicity was measured by multiplex assay (HBsAg, HBeAg, albumin), branched DNA (pgRNA), or digital PCR (cccDNA) and depicted as % of inhibition compared to DMSO control. Graphs were prepared using Spotfire software.
A custom, Luminex-based multiplex assay that simultaneously measured HBeAg, albumin, and HBsAg was developed by Radix BioSolutions (Georgetown, Tex.). This is a sandwich immunoassay; each capture antibody was coupled with xMAP™ Luminex magnetic beads. The dynamic ranges of analyte detection are as follows: HBeAg (1-316 ng/ml), albumin (3.1-10,000 ng/ml), and HBsAg (0.1-100 ng/ml) with coefficient variant (CV) […]. Samples were read on FlexMAP 3D (Luminex) and analyzed by Genedata software.

[2] = test system: liver-enriched genes (liver signatures); test: Whole-genome transcriptome microarray on HLC treated with MB-1; format: cell-based, human
Procedure: FIG. 1: Maturation screen identified a small molecule that enhances maturation of HLC. (A) HLC maturation screening cascade. […] Lane 1-3, MB-1 (5 μM) at 7 d, 24 h, and 2 h, respectively. Lane 4-6, MB-1 (0.5 μM) at 7 d, 24 h, and 2 h, respectively. (C) BioQC liver score analysis of HLC transcriptomes (following treatment with MB-1 for 2 h, 24 h, and 7 day) were compared to those of PHH, HepaRG, and HepG2. (D) Expression of AAT-1a in HLC after 14 day of treatment with MB-1, or 1% DMSO. (E) MB-1-treated HLC support robust HBV infection: HLC (in 96-well plate) were treated with MB-1 (1 μM), or 1% DMSO, for 4 days, then infected with patient-derived HBV (MOI 10, in triplicate). Culture medium was harvested at indicated time points and analyzed for HBsAg.
To fully manifest the potential of HLC as a disease-relevant assay for HBV drug discovery, they have to meet the following criteria: hepatocyte-likeness, scalability, assay robustness, and reproducibility. It is well known that HLC still display immature phenotypes i.e. resemble more fetal than adult, hepatocytes (Baxter et al., 2015; Godoy et al., 2015; Goldring et al., 2017). […]

## O=C(NC(CO)CO)c1c[nH]c2ncc(C3CC3)nc12 [compound 7]
[1]; 240 h, read-out: HBeAg IC50 (μM) Median, PHH, patient-derived HBV GT A, MOI 40, day 10 pi
  IC50: 0.4 µM
[1]; 240 h, read-out: HBeAg IC50 (μM) Median, PHH, patient-derived HBV GT B, MOI 40, day 10 pi
  IC50: 0.31 µM
[1]; 240 h, read-out: HBeAg IC50 (μM) Median, PHH, patient-derived HBV GT C, MOI 40, day 10 pi
  IC50: 0.35 µM
[1]; 240 h, read-out: HBeAg IC50 (μM) Median, PHH, patient-derived HBV GT D, MOI 40, day 10 pi (Table 5)
  IC50: 0.31 µM
[1]; read-out: HBeAg IC50 (μM) Median, PHH, HepG2.2.15-derived HBV GT D, MOI 40
  IC50: 15.3 µM
[1]; read-out: HBeAg IC50 (μM) Median, PHH, HepG2.2.15-derived HBV GT D, MOI 125
  IC50: 15.9 µM
[1]; read-out: HBeAg IC50 (μM) Median, PHH, patient-derived HBV (GT D)
  IC50: 0.39 µM
[1]; read-out: HBeAg IC50 (μM) Median, PHH, patient-derived HBV GT D, MOI 40 (Table 6)
  IC50: 0.32 µM
[1]; read-out: HBeAg IC50 (μM) Median, PHH, patient-derived HBV GT D, MOI 125
  IC50: 0.57 µM
[1]; read-out: HBeAg IC50s, PHH, patient-derived HBV GT A-D, range stated in text for HBsAg & HBeAg
  IC50: 0.24 to 0.45 µM

## O=C(NCc1cccc(F)c1)c1cccc2[nH]c(-c3c(NC[C@@H](O)c4ccccc4)cc[nH]c3=O)nc12 [MB-1]
[2]; Gini index >0.7
  number of liver-enriched genes (liver tissue signature) with up-regulated mRNA expression: ~237
[2]; Gini index >0.8
  number of up-regulated genes that are highly expressed in the liver: 137

Source: US20230248723A1, “PYRROLO[2,3-B]PYRAZINE COMPOUNDS AS CCCDNA INHIBITORS FOR THE TREATMENT OF HEPATITIS B VIRUS (HBV) INFECTION” (Hoffmann-La Roche Inc., priority 2017, published 2023)
